Measured values as given in patent publication US20140336187A1, “METHODS FOR TREATING LEISHMANIASIS” (HOWARD UNIVERSITY, priority 2011, published 2014).
Like-named read-outs stand apart in the source and are kept apart here.

What was measured:
[1] = system: L. donovani promastigotes; assay: Dose and time-dependent inhibitory effect on L. donovani promastigotes (2, 4, 6, 24 hours exposure); format: cell-based, Leishmania donovani
Description: The Leishmanicidal properties of fifteen naphthoquinone compounds (FIG. 1) on L. donovani promastigotes proliferation were assessed by the resazurin cell viability assay. Promastigotes from axenic culture were harvested during the exponential phase of growth (at least 5-day old culture), incubated at a concentration of 2×10^5 cells/200 μl with and without dilutions of compounds in 96-well microtitre plates. Dilutions of compounds covering 0.03 μM to 44 μM were prepared. […] 20 μl Alamar Blue (12.5 mg resazurin dissolved in 100 ml distilled water (Sigma #R7017)) (Mikes and Steverding, 2000) were added to each well and plates were incubated for another 2 hrs. […] Decrease in fluorescence (inhibition), were expressed as percentage of the fluorescence of control cultures and were plotted against the concentrations of compounds. The IC50 values were calculated from the sigmoidal inhibition curves.
A time and dose-dependent inhibitory effect of all 15 imido-substituted naphthoquinone compounds was assessed on their activity on promastigotes of L. donovani. Promastigotes were plated in 96-well plates and incubated in different concentrations of each compound (0.03 to 44 μM), incubated for two hours and viabilities assayed by the resazurin assay. A two hour exposure was assessed by calculation of IC50 values of each compound. Values are means±S.E. (Standard Error).
(§1) A time and dose-dependent inhibitory effect of all 15 imido-substituted naphthoquinone compounds was assessed on their activity on promastigotes of L. donovani. Promastigotes were plated in 96-well plates and incubated in different concentrations of each compound (0.03 to 44 μM), incubated for four hours and cell viabilities assayed by the resazurin assay. A four hour exposure was assessed by calculation of IC50 values of each compound. Values are means±S.E. (Standard Error).
Promastigotes were plated in 96-well plates and incubated in different concentrations of each compound (0.03 to 44 μM), incubated for six hours and cell viabilities assayed by the resazurin assay. A six hour exposure was assessed by calculation of IC50 values of each compound. Values are means±S.E. (Standard error).
as §1, with “incubated for twenty four hours” for “incubated for four hours”, “assay. A twenty four hour” for “assay. A four hour”

serum IgG = assay: Seroprevalence of L. donovani-specific serum IgG (ELISA) in infected BALB/c mice; format: in vivo; conditions: serum 14 days post-infection
Description: To make L. donovani crude antigens, L. donovani promastigotes and amastigotes were counted using a hemocytometer, spun at 800×g for 10 min, and washed three times with 1× phosphate buffered saline (PBS). After the final wash, parasites were resuspended in 1×PBS at a concentration of 1×10^8 promastigotes (amastigotes)/ml and lysed by 5 freeze and thaw cycles or by sonication at maximum speed for 5 cycles of 10 seconds with cooling, and frozen at −80° C. until needed for assay (Burns et al., 1993; Zijlstra et al., 1998). Protein concentration was determined by the BIORAD assay.
5 μg/ml of antigen in 100 mM carbonate-bicarbonate buffer […], were added to the wells of a 96 well polyvinyl plate (100 μl/well) and incubated at room temperature for 1 hr or overnight at 4° C. Wells were emptied, blocking buffer was added (200 μl/well), and wells were incubated at room temperature for 1 hr. Wells were emptied and 50 or 100 μl/well of diluted samples added (5× mice serum), and incubated for 1.5-2 hrs. Plates were washed 4× and an anti-mouse-IgG was diluted 1:500, and added (100 μl/well); these plates were incubated for 30 min in the dark and secondary antibody tagged to HRP was added at a dilution of 1:500. TMB-HRP developer was added 100 μl/well for 30 min in the dark and plates were read at 630 nm on a spectrophotometer (Zijlstra et al., 1998).
The purpose of the test was to confirm positive infectivity through levels of serum IgG in infected BALB/c mice. A high serum IgG level is predictive of an infection with visceral leishmaniasis. The results are expressed as percent increase or percent decrease in IgG levels. Four compounds with three different concentrations each were used for the tests.
Serum levels of IgG in infected but untreated mice increased by 20.36% compared to that of uninfected mice. […] Specific-parasite IgG antibodies produced by BALB/c mice inoculated with 10^6 infective concentrations of Leishmania donovani. Mice (n=2 per group) were infected subcutaneously at the base of their tail with log phase promastigotes. […] Serum from mice was obtained fourteen days post-infection and tested individually by ELISA to determine the specific levels of L. donovani IgG. Bars indicate the mean±S.E. (Standard Error) from two mice.

[2] = Leishmania donovani, 2 h, read-out: Antileishmanial Activity IC50 (μM) 2 hours
[3] = Leishmania donovani, 4 h, read-out: Antileishmanial Activity IC50 (μM) 4 hours
[4] = Leishmania donovani, 6 h, read-out: Antileishmanial Activity IC50 (μM) 6 hours
[5] = Leishmania donovani, 24 h, read-out: Antileishmanial Activity IC50 (μM) 24 hours

SMILES	IC50 ([1]; promastigotes, 6 hours exposure, means ± S.E., read-out: Antileishmanial Activity IC50 (μM) 6 hours) [µM]	IC50 ([1]; promastigotes, 24 hours exposure, means ± S.E., read-out: Antileishmanial Activity IC50 (μM) 24 hours) [µM]	IC50 ([1]; read-out: Antileishmanial Activity IC50 (μM) 2 hours, promastigotes, 2 hours exposure, means ± S.E.) [µM]	IC50 ([1]; read-out: Antileishmanial Activity IC50 (μM) 4 hours, promastigotes, 4 hours exposure, means ± S.E.) [µM]	IgG Increase (%) (serum IgG; 20 mg/kg)	IC50 [1, 2] [µM]	IC50 [1, 3] [µM]	IC50 [1, 4] [µM]	IC50 [1, 5] [µM]	IgG Increase (%) (serum IgG; 5 mg/kg)	IgG Increase (%) (serum IgG; 50 mg/kg)
C[C@@H]1[C@H](O)[C@@H](C)/C=C/C=C/C=C/C=C/C=C/C=C/C=C/[C@H](O[C@@H]2O[C@H](C)[C@@H](O)[C@H](N)[C@@H]2O)C[C@@H]2O[C@](O)(C[C@@H](O)C[C@@H](O)[C@H](O)CC[C@@H](O)C[C@@H](O)CC(=O)O[C@H]1C)C[C@H](O)[C@H]2C(=O)O [Am. B., Amphotericin B, reference compound]	52 ± 12.2	4.1 ± 0.4	3.09 ± 2	4.49 ± 0.3	24.74						
NC1=C(Br)C(=O)c2ccccc2C1=O [IMD8, 2-Amino-3-bromo-1,4-naphthoquinone]					28.66	0.021 ± 0.001	64.2 ± 11.8	23100	12 ± 0.8	20.94	23.16
O=C1C(Cl)=C(N(C(=O)c2cccc(Cl)c2)C(=O)c2cccc(Cl)c2)C(=O)c2ccccc21 [IMDNQ4, 3-Chloro-N-(3-chlorobenzoyl)-N-(3-chloro-1,4-dioxo-1,4-dihydronaphthalen-2-yl)-benzamide]					6.81	3.52 ± 3.6	21.5 ± 9.6	4.11 ± 6.3	3.96 ± 1.3	11.34	26.76
CCCC(=O)N(C(=O)CCC)C1=C(Cl)C(=O)c2ccccc2C1=O [IMDNQ15]					14.12	8.6 ± 0.01		116.35 ± 0.07	3.96	21.79	30.70
